{"source": "patent US20060204502A1", "about": "(priority 2004, published 2006)", "key": {"A375 cells [1]": {"system": "A375 cells", "assay": "Colony formation assay of A375 cells", "assay_type": "cell-based, human", "procedure": "FIG. 2 illustrates colony formation assay of A375 cells. Cells were treated with different drugs and colonies were counted after 7 days. The values represent the mean±SEM of four independent experiments. […] Analysis was by ANOVA followed by Dunnett's test.\nControl plates received the same volume of DMSO alone. After 7 days of growth at 37° C. in humidified atmosphere containing 5% CO2, the cells were fixed with absolute methanol for 5′ and stained with 1/10 Giemsa/phosphate-buffered saline (PBS) staining solution for 10 minutes. Staining solution was removed and colonies of greater than 30 cells were scored as survivors. For each treatment, six individual wells were scored."}, "A375 cells [2]": {"system": "A375 cells", "assay": "Flow cytometry cell cycle (G2/M) and apoptosis (sub-G1) analysis, A375", "assay_type": "cell-based, human", "details": "A375; for EC50: Homo sapiens, A-375", "procedure": "Flow Cytometry Analysis: A375 and NCTC2544 adherent cells were trypsinized, mixed with floating cells, washed with PBS and permeabilised in 70% (vol/vol) ethanol/PBS solution at 4° C. for at least 24 hours. Jurkat, HeL023 and PBMC cells were centrifuged for 10 minutes at 1000×g. The cell pellet was then resuspended and permeabllised in 70% (vol/vol) ethanol/PBS solution at 4° C. for at least 24 hours. The cells were washed with PBS and the DNA was stained with a PBS solution, containing 20 μg/ml of propidium iodide and 100 μg/ml of RNAse, at room temperature for 30 minutes. Cells were analysed by FACScan (Becton-Dickinson) and the content of DNA was evaluated by the Cell-LISYS program (Becton-Dickinson). Cell distribution among cell cycle phases and apoptotic cells was evaluated as previously described (Secchiero et al., 2001). Briefly, the cell cycle distribution is shown as the percentage of cells containing 2n (G1 phase), 4n (G2 and M phases), 4n>x>2n. DNA amount (S phase) judged by propidium iodide staining. The apoptotic population is the percentage of cells with DNA content lower than 2n.\nAfter 24 hours, cells were collected for flow cytometry analysis. PD 98059 was used at 20 uM as an inhibitor of MEK to prevent MEK-1 activation. […]\nEC50 values were obtained by analysing G2/M accumulation dose response curve. ECMAX values were obtained by analysing sub-G1 accumulation dose response curve. Paclitaxel values have units of ng/ml."}, "PBMC blasts": {"system": "PBMC blasts", "assay": "Flow cytometry cell cycle analysis, PBMC blasts", "assay_type": "cell-based", "details": "Homo sapiens, + MRE3008F20 10 μM, read-out: EC50 (G2/M accumulation)", "quoted_text": "For multi-drug resistance testing, A375 and NCTC2544 cells are grown adherently and maintained in DMEM and EMEM medium, respectively, containing 10% fetal calf serum, penicillin (100 U/ml), streptomycin (100 μg/ml), L-glutamine (2 mM) at 37° C. in 5% CO2/95% air. HeL023 and Jurkat were grown in RPMI-1640 medium, containing 10% fetal calf serum, penicillin (100 U/ml), streptomycin (100 μg/ml), L-glutamine (2 mM) at 37° C. in 5% CO2/95% air. Cells are passaged two or three times weekly at a ratio between 1:5 and 1:10. Lymphocytes were isolated from buffy coats kindly provided by the Blood Bank of the University Hospital of Ferrara. Blood donated by healthy volunteers, after informed consent for research was obtained. Lymphocytes were isolated by density gradient centrifugation (Ficoll/Histopaque 1.077 g/ml). […]\nFlow Cytometry Analysis: A375 and NCTC2544 adherent cells were trypsinized, mixed with floating cells, washed with PBS and permeabilised in 70% (vol/vol) ethanol/PBS solution at 4° C. for at least 24 hours. […] Cells were analysed by FACScan (Becton-Dickinson) and the content of DNA was evaluated by the Cell-LISYS program (Becton-Dickinson). Cell distribution among cell cycle phases and apoptotic cells was evaluated as previously described (Secchiero et al., 2001). […]"}, "Human Melanoma A375": {"system": "Human Melanoma A375", "assay": "MTT growth inhibitory assay, A375", "details": "Homo sapiens, A-375, read-out: IC50 (μg/ml) of anti-neoplastic agent used jointly with A3 antagonist, A375 cells"}, "HIF-1α": {"system": "HIF-1α", "assay": "HIF-1α protein immunoblot in hypoxic cells", "assay_type": "cell-based, human", "details": "for HIF-1α protein expression: 100 nM, 4 hours hypoxia", "procedure": "Cell culture and hypoxia treatment: Cells were maintained in DMEM (A375), EMEM (NCTC 2544) or RPMI 1640 (U87MG, U2OS) medium containing 10% fetal calf serum, penicillin (100 U/ml), streptomycin (100 ug/ml), and L-glutamine (2 mM) at 37° C. in 5% CO2/95% air. Cells were passaged two or three times weekly at a ratio between 1:5 and 1:10. Hypoxic exposure was in BBL™ GasPak pouch™ System (Becton Dickinson) that reduce oxygen concentration of less than 2% within 2 hours of incubation at 35° C.\nCells were harvested and washed with ice-cold PBS containing 1 mM sodium orthovanadate, AEBSF 104 mM, aprotinin 0.08 mM, leupeptin 2 mM, bestatin 4 mM, pepstatin A 1.5 mM, E-64 1.4 mM. Cells were then lysed in Triton lysis buffer. The protein concentration was determined using BCA protein assay kit (Pierce). […] The gel was then electroblotted onto a nitrocellulose membrane. Membranes were blocked with 5% nonfat dry milk in PBS containing 0.1% Tween-20 and incubated with antibodies against HIF-1α (1:250 dilution) and HIF-1β (1:1000 dilution) in 5% nonfat dry milk in PBS/0.1% Tween-20 overnight at 4° C. Aliquots of total protein sample (50 ug) were analyzed using antibodies specific for phosphorylated (Thr183/Tyr185) or total p44/p42 MAPK (1:5000 dilution), phosphorylated (Thr180/Tyr182) or total p38 MAPK (1:1000 dilution) and for A3 receptor (1 µg/ml dilution). Filters were washed and incubated for 1 hour at room temperature with peroxidase-conjugated secondary antibodies against mouse and rabbit IgG (1:2000 dilution). […] The membranes were then stripped and reprobed with tubulin (1:250) to ensure equal protein loading.\nU0126 was used at 10 and 30 uM as inhibitor of MEK-1 and MEK-2 to prevent p44 and p42 MAPK activation. SB202190 was used at 1 and 10 uM as inhibitor of p38 MAPK.\nDensitometry analysis: The intensity of each band in immunoblot assay was quantified using molecular analyst/PC densitometry software (Bio-Rad). […] The data were presented as the mean±S.E., and analyzed by the Student's test."}, "HIF-1α mRNA": {"system": "HIF-1α mRNA", "assay": "Real-Time RT-PCR of HIF-1α mRNA, A375 cells in hypoxia", "assay_type": "cell-based, human", "details": "4 hours hypoxia"}, "p44/p42 MAPK": {"system": "p44/p42 MAPK", "assay": "p44/p42 MAPK phosphorylation immunoblot, A375 cells in hypoxia", "assay_type": "cell-based, human", "details": "4 hours hypoxia, nanomolar concentrations, maximum at 100 nM", "procedure": "(§1) Cells were harvested and washed with ice-cold PBS containing 1 mM sodium orthovanadate, AEBSF 104 mM, aprotinin 0.08 mM, leupeptin 2 mM, bestatin 4 mM, pepstatin A 1.5 mM, E-64 1.4 mM. Cells were then lysed in Triton lysis buffer. The protein concentration was determined using BCA protein assay kit (Pierce). Equivalent amounts of protein (35 ug) were subjected to electrophoresis on 7.5% sodium dodecyl sulfate-acrylamide gel. The gel was then electroblotted onto a nitrocellulose membrane. Membranes were blocked with 5% nonfat dry milk in PBS containing 0.1% Tween-20 and incubated with antibodies against HIF-1α (1:250 dilution) and HIF-1β (1:1000 dilution) in 5% nonfat dry milk in PBS/0.1% Tween-20 overnight at 4° C. Aliquots of total protein sample (50 ug) were analyzed using antibodies specific for phosphorylated (Thr183/Tyr185) or total p44/p42 MAPK (1:5000 dilution), phosphorylated (Thr180/Tyr182) or total p38 MAPK (1:1000 dilution) and for A3 receptor (1 µg/ml dilution). Filters were washed and incubated for 1 hour at room temperature with peroxidase-conjugated secondary antibodies against mouse and rabbit IgG (1:2000 dilution). […] The membranes were then stripped and reprobed with tubulin (1:250) to ensure equal protein loading. […]"}, "p38 MAPK": {"system": "p38 MAPK", "assay": "p38 MAPK phosphorylation immunoblot, A375 cells in hypoxia", "assay_type": "cell-based, human", "details": "4 hours hypoxia, 10-1000 nM", "procedure": "as §1"}, "[3]": {"molecular_target": "T1, human A3 adenosine receptor (Homo sapiens, UniProt P0DMS8)", "T1 construct": "endogenous in cells; host or cells: A375 human melanoma cells (ATCC)", "T1 sequence (P0DMS8 1-318)": "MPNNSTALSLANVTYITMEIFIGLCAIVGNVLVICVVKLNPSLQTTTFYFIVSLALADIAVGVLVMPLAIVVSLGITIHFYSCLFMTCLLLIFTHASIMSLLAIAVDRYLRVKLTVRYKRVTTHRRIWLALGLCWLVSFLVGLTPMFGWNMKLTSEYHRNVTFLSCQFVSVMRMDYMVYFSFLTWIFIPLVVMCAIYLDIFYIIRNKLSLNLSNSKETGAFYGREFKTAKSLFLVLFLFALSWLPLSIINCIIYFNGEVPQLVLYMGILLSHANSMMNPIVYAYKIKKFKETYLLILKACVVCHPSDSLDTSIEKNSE", "assay": "Binding affinity to A3 adenosine receptor in A375 cells"}, "P-gp": {"molecular_target": "P-gp (Homo sapiens, UniProt P08183)", "sequence (P08183 whole entry)": "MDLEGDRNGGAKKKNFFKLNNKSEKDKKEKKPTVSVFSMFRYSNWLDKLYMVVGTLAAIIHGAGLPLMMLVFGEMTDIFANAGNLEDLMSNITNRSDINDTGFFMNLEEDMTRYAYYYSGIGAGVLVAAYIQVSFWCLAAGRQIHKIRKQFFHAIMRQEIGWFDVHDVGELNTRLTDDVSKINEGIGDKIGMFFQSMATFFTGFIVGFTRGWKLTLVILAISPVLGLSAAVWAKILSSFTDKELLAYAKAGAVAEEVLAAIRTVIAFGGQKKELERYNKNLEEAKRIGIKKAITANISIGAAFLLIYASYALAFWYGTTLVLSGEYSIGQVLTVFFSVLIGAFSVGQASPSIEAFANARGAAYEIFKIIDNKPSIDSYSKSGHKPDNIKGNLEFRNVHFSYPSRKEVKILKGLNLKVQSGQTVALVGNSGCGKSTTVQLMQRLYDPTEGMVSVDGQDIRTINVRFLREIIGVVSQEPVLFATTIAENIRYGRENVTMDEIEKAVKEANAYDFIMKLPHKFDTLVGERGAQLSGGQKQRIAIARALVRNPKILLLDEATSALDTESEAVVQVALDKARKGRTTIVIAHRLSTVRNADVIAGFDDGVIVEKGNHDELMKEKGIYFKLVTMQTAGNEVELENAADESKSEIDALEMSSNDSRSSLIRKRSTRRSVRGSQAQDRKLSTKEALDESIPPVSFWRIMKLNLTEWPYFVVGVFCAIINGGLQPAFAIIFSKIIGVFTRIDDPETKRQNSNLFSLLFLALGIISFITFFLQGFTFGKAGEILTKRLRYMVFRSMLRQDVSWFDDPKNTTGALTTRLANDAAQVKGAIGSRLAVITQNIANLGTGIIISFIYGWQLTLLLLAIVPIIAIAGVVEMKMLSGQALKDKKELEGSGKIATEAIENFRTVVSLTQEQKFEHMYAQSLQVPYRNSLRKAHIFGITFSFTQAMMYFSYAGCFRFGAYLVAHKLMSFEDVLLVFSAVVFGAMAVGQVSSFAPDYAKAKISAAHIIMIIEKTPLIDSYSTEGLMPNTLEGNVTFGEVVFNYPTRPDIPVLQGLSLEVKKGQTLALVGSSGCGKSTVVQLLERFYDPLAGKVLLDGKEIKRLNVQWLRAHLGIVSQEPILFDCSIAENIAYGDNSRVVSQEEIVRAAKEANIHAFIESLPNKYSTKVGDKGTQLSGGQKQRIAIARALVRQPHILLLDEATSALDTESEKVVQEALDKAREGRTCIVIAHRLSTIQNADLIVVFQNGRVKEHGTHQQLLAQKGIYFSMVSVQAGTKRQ", "assay_type": "cell-based", "details": "HeL023 cells; 10 μM", "procedure": "Rhodamine 123 Efflux Assay: 5×10^5 cells from each subline were loaded with 50 ng/ml of rhodamine 123 for 30 minutes at 37 C in medium. The cells were washed and resuspended in dye-staining agent free medium for 3 hours at 37 C. to allow rhodamine 123 efflux. The cells were then washed twice and the fluorescence of intracellular rhodamine 123 were analysed with Flow cytometer (residual fluorescence FRES). The fluorescence was compared with loaded cells maintained at 4 C. to prevent drug export (maximal fluorescence FMAX). […] Cells from each subline that were not being exposed to rhodamine 123 were used as negative controls.\nRhodamine 123 (Rh123) retention, a P-gp functional assay, was studied in all cell lines. This assay was performed by incubating cells with Rh123 and determining Rh123 accumulation by measuring its fluorescence. The maximum load of Rh123 (FMAX) was quantified at the end of treatment harvesting the cells and storing them at 4° C. to prevent any active Rh123 efflux. The P-gp drug efflux was allowed incubating Rh123-loaded cells in fresh new medium Rh123-free for 3 hours at 37° C. After this incubation, residual fluorescence (FRES) was measured and compared to FMAX."}}, "note": "Where two headings read alike, the source gives them in different places.", "data": [{"smiles": "CC(=O)O[C@H]1C(=O)[C@@]2(C)[C@H]([C@H](OC(=O)c3ccccc3)[C@]3(O)C[C@H](OC(=O)[C@H](O)[C@@H](NC(=O)c4ccccc4)c4ccccc4)C(C)=C1C3(C)C)[C@]1(OC(C)=O)CO[C@@H]1C[C@@H]2O", "note": "[paclitaxel]", "values": [{"measurement": "colony formation, % of DMSO control", "setting": "A375 cells [1]; paclitaxel (0.75 μg/ml) alone, 7 days", "value": 64, "unit": "%"}, {"measurement": "ECMAX (concentration exerting maximal apoptosis, sub-G1)", "setting": "A375 cells [2]; DMSO (no antagonist)", "value": "6.00 ± 0.63", "unit": "ng/mL"}, {"measurement": "EC50", "setting": "A375 cells [2]; 24 h, DMSO (no antagonist), read-out: EC50 (G2/M accumulation)", "value": "16.6 ± 2", "unit": "ng/mL"}, {"measurement": "EC50", "setting": "PBMC blasts", "value": "5.3 ± 0.6", "unit": "ng/mL"}, {"measurement": "IC50", "setting": "Human Melanoma A375; + IL-11 (5 μg/ml)", "value": 0.00046, "unit": "µg/mL"}, {"measurement": "IC50", "setting": "Human Melanoma A375; + MRE3008F20 (10 μg/ml)", "value": 0.00059, "unit": "µg/mL"}]}, {"smiles": "CNC(=O)[C@H]1O[C@@H](n2cnc3c(NCc4cccc(I)c4)nc(Cl)nc32)[C@H](O)[C@@H]1O", "note": "[Cl-IB-MECA]", "values": [{"measurement": "colony formation, % of DMSO control", "setting": "A375 cells [1]; 10 μM alone, colonies counted after 7 days", "value": 130, "unit": "%"}, {"measurement": "colony formation, % of DMSO control", "setting": "A375 cells [1]; 10 μM combined with paclitaxel (0.75 μg/ml), 7 days", "value": 85, "unit": "%"}, {"measurement": "EC50", "setting": "HIF-1α; A375, hypoxia 4 hours, read-out: EC50, HIF-1α protein accumulation", "value": "10.6 ± 1.2", "unit": "nM"}, {"measurement": "HIF-1α protein expression", "setting": "HIF-1α; U2OS osteosarcoma", "value": "significant increase"}, {"measurement": "HIF-1α protein expression", "setting": "HIF-1α; U87MG glioblastoma", "value": "significant increase"}, {"measurement": "HIF-1α protein expression", "setting": "HIF-1α; human keratinocytes NCTC 2544", "value": "significant increase"}, {"measurement": "fold increase of HIF-1α mRNA accumulation vs untreated cells", "setting": "HIF-1α mRNA; 10 nM", "value": "1.13±0.10", "unit": "fold"}, {"measurement": "fold increase of HIF-1α mRNA accumulation vs untreated cells", "setting": "HIF-1α mRNA; 100 nM", "value": "1.25±0.15", "unit": "fold"}, {"measurement": "fold increase of HIF-1α mRNA accumulation vs untreated cells", "setting": "HIF-1α mRNA; 1 μM", "value": "1.19±0.13", "unit": "fold"}, {"measurement": "phosphorylation of p44 and p42", "setting": "p44/p42 MAPK", "value": "induced"}, {"measurement": "phosphorylation of p38 MAPK", "setting": "p38 MAPK", "value": "increased the phosphorylation of p38 MAPK in a dose-dependent manner"}]}, {"smiles": "CCCCn1cc2c(nc(NC(=O)Nc3ccccc3)n3nc(-c4ccco4)nc23)n1", "note": "[MRE 3062F20, 5-N-(4-phenyl-carbumoyl)amino-8-butyl-2(2furyl)-pyrazolo-[4,3e]-1,2,4-triazolo[1,5-c]pyrimidine]", "values": [{"measurement": "EC50", "setting": "A375 cells [2]; antagonist dose inducing 50% of the enhancing activity to vindesine (1 nM), G2/M accumulation, read-out: SEC50", "value": "430 ± 40", "unit": "nM"}, {"measurement": "Ki", "setting": "[3]", "value": "2.3 ± 0.2", "unit": "nM"}, {"measurement": "% of Rh123 Negative Cells (cells expressing P-gp activity)", "setting": "P-gp", "value": "1.0 ± 0.2", "unit": "%"}]}]}
